Assay results: US20230257383A1, “COMPOUND SERVING AS BTK INHIBITOR, PREPARATION METHOD THEREFOR, AND USE THEREOF” (CHENGDU HYPERWAY PHARMACEUTICALS CO., LTD., priority 2020, published 2023)

How the values were obtained:
[1] = Liver microsome metabolic stability test (human); format: in vitro ADME; settings: for microsomal CLint: liver microsomes, read-out: CLint (μL/min/mg) Human
Description: (§1) 1: To the sample wells of T0, T5, T10, T20, T30, T60 and NCF60, 10 μL of the test or reference working solution and 80 μL of microsome working solution (hepatic microsome with a protein concentration of 0.5 mg/mL) were added, and to Blank60 well, only the microsome working solution was added. Then samples of the Blank60, T5, T10, T20, T30 and T60 other than TO and NCF60 were placed in a 37° C. water bath and pre-incubated for about 10 min.
(§2) 2: To the TO sample well, 300 μL of stop solution (containing 200 ng/mL tolbutamide and 200 ng/mL labetalol in acetonitrile solution) was added first, followed by 10 μL of NADPH regeneration system working solution.
(§3) 3: After the pre-incubation of Blank60, T5, T10, T20, T30 and T60 incubation plates, 10 μL of NADPH regeneration system working solution was added to each sample well to start the reaction, and 10 μL of 100 mM potassium phosphate buffer was added to the NCF60 sample well.
(§4) 4: After incubation for an appropriate time (such as 5, 10, 20, 30 and 60 min), to each test sample well and control well of the Blank60, T5, T10, T20, T30, T60 and NCF60 plates, 300 μL of stop solution was added to terminate the reaction.
(§5) 5: All sample plates were shaken to mix well and centrifuged at 4000 rpm for 20 min, and 100 μL of the supernatant of the test sample or control sample was taken and diluted with 300 μL of pure water for LC-MS/MS analysis.
(§6) 6: Data analysis: T1/2 and CLint(mic) (μL/min/mg) values were calculated according to the first-order elimination kinetics. The first-order elimination kinetics equation was: […]

[2] = Liver microsome metabolic stability test (rat); format: in vitro ADME; settings: for microsomal CLint: liver microsomes, read-out: CLint (μL/min/mg) Rat
Description: as §1, §2, §3, §4, §5, §6

[3] = Pharmacokinetic test, oral, SD rats; format: in vivo; settings: oral 10 mg/kg
Description: Each test compound was administered orally (10 mg/kg, 3 rats in each group) to SD rats for pharmacokinetic study. […] Animals were fasted overnight before oral administration, and fed again after 4 h of administration. […] At each collection time point, 3 whole blood samples were collected at a the collection volume of about 0.2-0.3 mL. […] The collected plasma was stored at −20° C. before analysis. 20 μL of plasma sample was added into a 1.6 mL 96-well deep-well plate, added with 200 μL of working internal standard solution (the same volume of vehicle was added to the blank instead of internal standard), vortexed for 1 min, and centrifuged at 5800 rpm for 10 min. 100 μL of the supernatant was added to a 96-well injection plate for LC-MS/MS analysis.

[4] = tested on: TMD8 cell proliferation; test: In vitro cell proliferation inhibitory activity test (CTG), TMD8; format: cell-based; settings: Homo sapiens, TMD8, 72 h, TMD8 cells
Description: (§7) Test Example 4: In Vitro Cell Proliferation Inhibitory Activity Test
(§8) Cells were cultured in 1640 medium, added with 10% inactivated FBS and 1% double antibiotics, and cultured at 37° C. and 5% CO2.
(§9) (1) Cells were routinely cultured until the cell density was 80%-90%, and the cells were harvested when their number reached the requirement.
(§10) (2) Cells were resuspended with corresponding culture medium, counted, and prepared into cell suspension at appropriate density.
(§11) (3) The cell suspension was added to a 96-well plate, 100 μL per well.
(§12) (4) Cells were cultured overnight in a 37° C., 5% CO2 incubator.
(§13) (1) The compounds to be tested were diluted with DMSO to make a stock solution with a final concentration of 20 mM for later use.
(§14) (2) The stock solution was diluted 10 times from 20 mM to 2 mM with DMSO, and then diluted 3 times from 2 mM to 9 concentrations.
(§15) (3) The blank control wells were cells plus 0.5% DMSO, as high-reading control wells.
(§16) (4) Wells with no cells and only medium were used as low-reading control wells.
(§17) 4: Cell treatment with compound
(§18) (1) 24 h after the cells were plated, the compounds acted alone, and 99 μL of growth medium was added to each well, followed by 1 μL of the compound prepared in step 3. The plate was shaken gently to mix uniformly, and then placed in a 37° C., 5% CO2 incubator.
(§19) (2) The cell plate was placed in an incubator for 72 h.
(§20) 5: Detection by CTG method
(§21) (1) The cell plate to be tested was placed at room temperature for 30 min, and 100 μL of medium was discarded from each well.
(§22) (2) 100 μL of CTG reagent (CelltiterGlo kit) was added to each well, placed on a fast shaker for 2 min, and stood at room temperature in the dark for 30 min.
(§23) (3) The chemiluminescent signal value was read with the Envision instrument.
(§24) IC50 was calculated by using GraphPad Prism 8 software. The IC50 (half inhibitory concentration) of the compound was derived using the following nonlinear fitting formula, and the results are shown in the following table:
(§25) Y=Bottom+(Top−Bottom)/(1+10^((Log IC50−X)×HillSlope))
(§26) X: log value of compound concentration, Y: inhibition rate (% inhibition)
(§27) Inhibition rate (% inhibition)=(reading of high-reading control well-reading of compound well)/(reading of high-reading control well-reading of low-reading control well)×100

[5] = tested on: DOHH2 cell proliferation; test: In vitro cell proliferation inhibitory activity test (CTG), DOHH2; format: cell-based; settings: Homo sapiens, DOHH-2
Description: as §7, §8, §9, §10, §11, §12, §13, §14, §15, §16, §17, §18, §19, §20, §21, §22, §23, §24, §25, §26, §27

[6] = tested on: BT474 cell proliferation; test: In vitro cell proliferation inhibitory activity test (CTG), BT474; format: cell-based; settings: Homo sapiens, BT-474, BT474 cell proliferation
Description: as §7, §8, §9, §10, §11, §12, §13, §14, §15, §16, §17, §18, §19, §20, §21, §22, §23, §24, §25, §26, §27

Row | microsomal CLint [1] [µL/min/mg] | microsomal CLint [2] [µL/min/mg] | IC50 [6] [nM] | Structure (SMILES) | further results
1 | – | – | 208 | COc1cccc(C(F)(F)c2ccc(-c3nc(C45CCC(CO)(CC4)OC5)n4ccnc(N)c34)cc2)c1F [Example 129] | –
2 | – | – | 209 | Cc1cccc(C(F)(F)c2ccc(-c3nc(C45CCC(CO)(CC4)OC5)n4ccnc(N)c34)cc2)c1F [Example 139] | –
3 | – | – | 504 | Nc1nccn2c(C34CCC(CO)(CC3)OC4)nc(-c3ccc(C(F)(F)c4ccc(F)c(Cl)c4)cc3)c12 [Example 140] | –
4 | – | – | 467 | Nc1nccn2c(C34CCC(CO)(CC3)OC4)nc(-c3ccc(C(F)(F)c4cccc(C5CC5)c4)cc3)c12 [Example 143] | –
5 | – | – | 191 | Nc1nccn2c(C34CCC(CO)(CC3)OC4)nc(-c3ccc(C(F)(F)c4c(F)c(F)cc(F)c4F)cc3)c12 [Example 144] | –
6 | – | – | 377 | Cc1c(F)cccc1C(F)(F)c1ccc(-c2nc(C34CCC(CO)(CC3)OC4)n3ccnc(N)c23)cc1 [Example 147] | –
7 | – | – | 121 | Nc1nccn2c(C34CCC(CO)(CC3)OC4)nc(-c3ccc(C(F)(F)c4c(F)cccc4F)cc3)c12 [Example 153] | –
8 | – | – | 269 | Nc1nccn2c(C34CCC(CO)(CC3)OC4)nc(-c3ccc(C(F)(F)c4ccccc4F)c(F)c3)c12 [Example 156] | –
9 | – | – | 2270 | Nc1nccn2c(C34CCC(CO)(CC3)OC4)nc(-c3ccc(C(O)(c4ccccc4)C(F)(F)F)cc3)c12 (centres unmarked) [Example 157] | –
10 | – | – | 4950 | Nc1nccn2c(C34CCC(CO)(CC3)OC4)nc(-c3ccc(C(F)(c4ccccc4)C(F)(F)F)cc3)c12 (centres unmarked) [Example 158] | –
11 | – | – | > 1000 | Nc1nccn2c(C34CCC(CO)(CC3)OC4)nc(-c3ccc(C(c4ccccc4)(C(F)(F)F)C(F)(F)F)cc3)c12 [Example 159] | –
12 | – | – | 55.2 | CS(=O)(=O)CCNCc1ccc(-c2ccc3ncnc(Nc4ccc(OCc5cccc(F)c5)c(Cl)c4)c3c2)o1 [Lapatinib] | –

Continued, molecule first:

Row | Structure (SMILES) | microsomal CLint [1] [µL/min/mg] | microsomal CLint [2] [µL/min/mg] | IC50 [6] [nM] | further results
13 | Nc1nccn2c([C@@H]3CC[C@H](CO)OC3)nc(-c3ccc(C(=O)Nc4ccccn4)cc3)c12 (single isomer, unassigned) [Example 2-A-P1] | – | – | – | CLint (μL/min/mg) Human [1]: <9.6 µL/min/mg; % Remaining (60 min) Human [1]: 122.5%; CLint (μL/min/mg) Rat [2]: <9.6 µL/min/mg; % Remaining (60 min) Rat [2]: 95.5%; AUC(0-∞) [3]: 77004 ng·h/mL
14 | COc1ccccc1C(=O)NCc1ccc(-c2nn(C3CCC(CO)OC3)c3ncnc(N)c23)cc1 (single isomer, unassigned) [Example 60-B] | – | – | – | Cl [3]: 188.82 mL/min/kg
15 | Nc1nccn2c(C3CCC(CO)OC3)nc(-c3ccc(C(=O)Nc4cc(C(F)(F)F)ccn4)cc3)c12 (single isomer, unassigned) [Example 109-P1] | – | – | – | IC50 [4]: 12.2 nM
16 | O=C(c1ccc(Oc2ccccc2)cc1Cl)c1c[nH]c2ncnc(N[C@@H]3CC[C@@H](CO)OC3)c12 [ARQ-531, reference compound] | < 9.6 | < 9.6 | – | IC50 [5]: 174 nM; IC50 [4]: 74.6 nM
17 | Nc1nccn2c(C3CC[C@@H](CO)OC3)nc(-c3ccc(C(=O)Nc4ccccn4)cc3F)c12 (some centres unmarked) [Example 1-B] | – | – | – | CLint (μL/min/mg) Human [1]: <9.6 µL/min/mg; % Remaining (60 min) Human [1]: 99.9%; CLint (μL/min/mg) Rat [2]: 18.2 µL/min/mg; % Remaining (60 min) Rat [2]: 63.7%
18 | COc1cccc(Oc2ccc(-c3nc(C4CCC(CO)OC4)n4ccnc(N)c34)cc2)c1F (centres unmarked) [Example 5] | 38.8 | 122 | – | –
19 | Nc1nccn2c(C3CCC(CO)OC3)nc(-c3ccc(Oc4cccc(F)c4F)cc3)c12 (centres unmarked) [Example 8] | 33.9 | 66.5 | – | –
20 | Nc1nccn2c(C3CCC(CO)OC3)nc(-c3ccc(Oc4cccc(Cl)c4F)cc3)c12 (centres unmarked) [Example 9] | 48.4 | 114 | – | % Remaining (60 min) Human [1]: 24.5%; % Remaining (60 min) Rat [2]: 3.2%
21 | COc1cccc(Oc2ccc(-c3nc(C4CCC(CO)OC4)n4c(Cl)cnc(N)c34)cc2)c1F (centres unmarked) [Example 12] | 124 | 118 | – | % Remaining (60 min) Human [1]: 2.6%; % Remaining (60 min) Rat [2]: 3.0%
22 | Nc1nccn2c(C3CCC(CO)OC3)nc(-c3ccc(Oc4ccccc4)cc3)c12 (centres unmarked) [Example 16] | 36.9 | 63.9 | – | % Remaining (60 min) Human [1]: 31.8%; % Remaining (60 min) Rat [2]: 14.6%
23 | Nc1nccn2c(C3CCC(CO)OC3)nc(-c3ccc(Oc4cccc(C(F)(F)F)c4F)cc3)c12 (centres unmarked) [Example 19] | 47.1 | 83.1 | – | –
24 | Cc1cccc(Oc2ccc(-c3nc(C4CCC(CO)OC4)n4ccnc(N)c34)cc2)c1F (centres unmarked) [Example 24] | 74.9 | 255 | – | –
25 | Nc1nccn2c(C3CCC(CO)OC3)nc(-c3ccc(C(=O)c4ccccc4)cc3)c12 (centres unmarked) [Example 26] | 31.1 | 46.1 | – | –
26 | Nc1nccn2c(C34CCC(CO)(CC3)OC4)nc(-c3ccc(C(=O)Nc4ccccn4)cc3)c12 [Example 34] | < 9.6 | < 9.6 | – | IC50 [4]: 56.9 nM
27 | Nc1nccn2c(C3CCC(CO)OC3)nc(-c3ccc(Oc4c(F)cccc4F)cc3)c12 (centres unmarked) [Example 64] | 36.8 | 81.6 | – | –
28 | Cc1ccnc(NC(=O)c2ccc(-c3nc(C4CCC(CO)OC4)n4ccnc(N)c34)cc2)c1 (centres unmarked) [Example 70] | 13.2 | 30.3 | – | –
29 | COc1cccc(Oc2ccc(-c3nc(C4CCC(CO)OC4)n4ccnc(N)c34)cc2)c1 (centres unmarked) [Example 101] | < 9.6 | 29.8 | – | –
30 | N#Cc1ccnc(NC(=O)c2ccc(-c3nc(C4CCC(CO)OC4)n4ccnc(N)c34)cc2)c1 (centres unmarked) [Example 103] | < 9.6 | < 9.6 | – | IC50 [4]: 25.1 nM; Cl [3]: 16.67 mL/min/kg
31 | Nc1nccn2c(C3CCC(CO)OC3)nc(-c3ccc(Cc4ccccc4)cc3)c12 (centres unmarked) [Example 106] | 13.1 | 29.5 | – | IC50 [4]: 49.5 nM
32 | Nc1nccn2c(C3CCC(CO)OC3)nc(-c3ccc(C(F)(F)c4ccccc4)cc3)c12 (centres unmarked) [Example 111] | 10.9 | 26.1 | – | –
33 | Nc1nccn2c(C34CCC(CO)(CC3)OC4)nc(-c3ccc(C(F)(F)c4ccccc4)cc3F)c12 [Example 114] | – | – | 173 | –
34 | COc1cccc(Oc2ccc(-c3nc(C45CCC(CO)(CC4)OC5)n4ccnc(N)c34)c(F)c2)c1C#N [Example 115] | – | – | – | IC50 [4]: 6.1 nM
35 | COc1ccc(F)cc1C(=O)NCc1ccc(-c2nn([C@@H](C)C(F)(F)F)c(N)c2C(N)=O)cc1 [LOXO-305] | – | – | – | IC50 [5]: 4990 nM; IC50 [4]: 184 nM
